Laboratory results taken from patent US8609695B2, “Methods of treating and/or suppressing insulin resistance” (Endorecherche, Inc., priority 1999, dated 2013).
Where a name gives a salt, the structure may show the parent alone.

Columns and labels:
[1] = system: human endometrial adenocarcinoma Ishikawa cells; experiment: Alkaline phosphatase activity in Ishikawa cells (Example 11); type: cell-based; details: for IC50: Homo sapiens, Ishikawa, 120 h, read-out: Inhibition of 1 nM E2 stimulation of alkaline phosphatase by tested compounds IC50; for Stimulation of alkaline phosphatase by tested compounds % of 1 nM E2 stimulation: intrinsic estrogenic activity
Experimental: The human Ishikawa cell line derived from a well differentiated endometrial adenocarcinoma was kindly provided by Dr. Erlio Gurpide, The Mount Sinai Medical Center, New York, N.Y. The Ishikawa cells were routinely maintained in Eagle's Minimum Essential Medium (MEM) containing 5% (vol/vol) FBS and supplemented with 100 U/ml penicillin, 100 μg/ml streptomycin, 0.1 mM Non-essential Amino Acids solution. Cells were plated in Falcon T75 flasks at a density of 1.5×10^6 cells at 37 C.
Twenty four hours before the start of an experiment, the medium of near confluent Ishikawa cells was replaced by fresh estrogen-free basal medium (EFBM) consisting of a 1:1 (v:v) mixture of phenol red-free Ham's F-12 and Dulbecco's Modified Eagle's Medium (DMEM) supplemented with 100 U/mL penicillin, 100 μg/mL Streptomycin, 2 mM glutamine, and 5% FBS treated twice with dextran-coated charcoal to remove endogenous steroids. Cells were then harvested by 0.1% pancreatin (Sigma) and 0.25 mM HEPES, resuspended in EFBM and plated in Falcon 96 well flat-bottomed microtiter plates at a density of 2.2×10^4 cells/well in a volume of 100 μl and allowed to adhere to the surface of the plates for 24 h. Thereafter, medium was replaced with fresh EFBM containing the indicated concentrations of compounds in a final volume of 200 μl. Cells were incubated for five days, with a medium change after 48 h.
At the end of the incubation period, microtiter plates were inverted and growth medium was decanted. The plates were rinsed with 200 μL by well of PBS (0.15M NaCl, 10 mM sodium phosphate, pH 7.4). PBS was then removed from the plates while carefully leaving some residual PBS, and the wash procedure was repeated once. The buffered saline was then decanted, and the inverted plates were blotted gently on a paper towel. Following replacement of the covers, the plates were placed at −80 C for 15 min followed by thawing at room temperature for 10 min. The plates were then placed on ice, and 50 μl of an ice-cold solution containing 5 mM p-nitrophenyl phosphate, 0.24 mM MgCl2, and 1 M diethanolamine (pH 9.8) was added. Plates were then warmed to room temperature, and the yellow color from the production of p-nitrophenyl was allowed to develop (8 min). Plates were monitored at 405 nm in an enzyme-linked immunosorbent assay plate reader (BIO-RAD, model 2550 EIA Reader).
Dose-response curves as well as IC50 values were calculated using a weighted iterative nonlinear squares regression.

[2] = system: ovariectomized female rats; experiment: 34-week treatment with ethynyl estradiol, EM-652.HCl, Raloxifene and DHEA, body fat (Example 7); type: in vivo, rat; details: OVX rats, 34 weeks
Experimental: The objective of this study was to assess the effect of a combined treatment with EM-652.HCl, and DHEA on body fat and body weight parameters in ovariectomized rats. For this purpose, ovariectomized rats received daily administration of EM-652.HCl (1 mg/kg), and DHEA (80 mg/kg) alone or in combination, for 34 weeks. EM-652.HCl was administered orally while DHEA was applied topically on dorsal skin. One group of animals was orally treated with 17-ethynylestradiol (0.1 mg/kg) and Raloxifene (EM-1105; 1 mg/kg) for comparison.
Ten to twelve week-old female Sprague-Dawley rats (Crl:CD(SD)Br) weighing approximately 235-250 g at start of treatment were used. Eighty rats were randomly distributed between 7 groups of 11 to 12 animals per group as follows: 1) Intact control; 2) OVX control; 3) OVX+EE2 (0.1 mg/kg); 4) OVX+raloxifene (1 mg/kg); 5) OVX+EM-652.HCl (1 mg/kg); 6) OVX+DHEA (80 mg/kg); 7) OVX+EM-652.HCl+DHEA. On day 1 of the study, the animals of the appropriate groups were bilaterally ovariectomized (OVX) under isoflurane anesthesia. EM-652.HCl, raloxifene and EE2 (Steraloids) were administered once daily by oral gavage as suspension in 0.4% methylcellulose (0.5 ml/rat) for 34 weeks while DHEA was applied topically once daily on dorsal skin as a solution in 50% ethanol-50% propylene glycol (0.5 ml/rat) for the same time period. Approximately 24 hours after the last dosing, overnight fasted animals were killed by exsanguination at the abdominal aorta under isoflurane anesthesia. Left and right retroperitoneal adipose tissues were collected and weighed.
After 34 weeks of treatment, individual rats under anesthesia with isoflurane had their whole body skeleton scanned using dual energy x-ray absorptiometry (DEXA; QDR 4500A, Hologic, Waltham, Mass.) and a Regional High Resolution Scan software. The body composition (including fat percentage) was determined.
Data were expressed as the means±SEM.

[3] = system: ovariectomized female rats; experiment: SERM comparison, energy balance and lipid-lipoprotein metabolism (Example 10); type: in vivo, Rattus norvegicus; details: OVX rats, 20 days; for Serum insulin (in words): 0.5 mg/rat; for Brown adipose tissue Lipoprotein lipase activity / Brown adipose tissue weight / Cumulative food intake / Serum glucose / Serum insulin / Serum leptin / Serum total cholesterol / Serum triglycerides / Soleus muscle Lipoprotein lipase activity / Soleus muscle weight / Total weight / VastusLateralis muscle weight / White adipose tissue inguinal Lipoprotein lipase activity / White adipose tissue inguinal weight / White adipose tissue retroperitoneal Lipoprotein lipase activity / White adipose tissue retroperitoneal weight: high carbohydrate diet, 0.5 mg/rat oral gavage
Experimental: For this purpose, tested compounds were administered by oral gavage for 20 days (0.5 mg/rat for each compound; 0.5 ml/rat) in 0.4% methylcellulose to ovariectomized female rats.
d) Diet: • During acclimation period, rats received a certified rodent diet (Lab Diet #5002, pellet) and tap water ad libitum while during study period, they received a high carbonhydrate diet (diet #3) and tap water ad libitum. The diet was composed of (g/100 g): Corn starch, 31.2; Dextrose, 31.2; Casein, 20.0; corn oil, 6.4; dl-Methionine, 0.3; Vitamine mix, 1.0; AIN-76 mineral mix, 4.9; fiber, 5.0. Rats were fasted (with access to water only) around 07 h00 the morning of their necropsy Randomization:
Test group: Seventy-seven rats were assigned to 8 groups of 9-10 rats for conduct of the study outlined below.
On day 0 of the study, rats from group 2 to 8 were ovariectomized (by bilateral flank incision) under Isoflurane anesthesia. Rats from group 1 were sham-operated.
Rats were weighed on day 0 (surgery) and then, every 2 days during study period as well as on the day of necropsy.
Food consumption was evaluated every 2 days.
In order to determine the effect of treatments on fat percentage, body composition was measured on Day 17 of the study using dual energy x-ray absorptiometry (DEXA; QDR 4500A, Hologic, Waltham, Mass.).
On day 21 of the study, approximately 24 hours after the last dosing and 6 hours of fasting, animals under Ketamine-Xylazine anesthesia were killed by exsanguination at the abdominal aorta.
Blood lipids (Total cholesterol and Triglycerides) and glucose were measured on frozen serum samples using the Boehringer Mannheim Diagnostic Hitachi 911 Analyzer (Boehringer Mannheim Diagnostic Laboratory Systems). Circulating hormones and substrates (Insulin and leptin) were measured on serum sample using the following kits: • Insulin: Linco RIA kit • Leptin: Linco RIA kit Organs and Tissues Collected
The following tissues were collected and weighed: • Muscle (right soleus and right VLM), fat (right retroperitoneal and right inguinal), and brown adipose tissue.
A piece of ˜0.1 g of all tissues (except uterus and vagina) were frozen in liquid nitrogen and kept at −80 C for later determination of lipoprotein-lipase (LPL) activity.

[4] = system: ovariectomized female rats; experiment: Uterine weight, fat and lipid, 20-day treatment (Example 13); type: in vivo, Rattus norvegicus; details: 20 days
Experimental: The objective of this study was to compare the effect on uterine, weight, fat and blood lipids following treatment with EM-652.HCl, ERA-923 and lasofoxifene, administered alone or in combination with EM-652.HCl, to ovariectomized female rats. For this purpose, each compound was administered orally for 20 days to ovariectomized female rats and at the end of the treatment period, the uterus and fat were collected and weighed.
d) Diet: • Certified Rodent feed (Lab Diet #5002, pellets) and tap water were provided ad libitum. Randomization:
Seventy rats were separated into 7 groups of 9 to 11 animals for conduct of the study outlined below:
Animals from groups 2 to 9 were ovariectomized under Isoflurane-induced anesthesia on Day 7 of the study.
The vehicle or tested compounds were given as suspension in 0.4% methylcellulose by oral gavage (0.5 ml/gavage/rat) from Day 2 to Day 21 of the study.
Rats were weighed on Study Day 1 and at the necropsy (SD 22).
Approximately 24 hours after the last dosing, overnight fasted rats under Isoflurane-induced anesthesia were killed by exsanguination at the abdominal aorta.
Uteri and retroperitonal adipose tissue were removed and weighed.

[5] = Ishikawa cells, five days incubation
[6] = EE2 0.1, Raloxifene 1, EM-652.HCl 1 mg/kg oral, DHEA 80 mg/kg topical
[7] = OVX rats, commercial rodent diet, 0.5 mg oral, EM-652.HCl 2.5 mg in combinations

## CC/C(=C(/c1ccc(OCCN(C)C)cc1)c1cccc(O)c1)c1ccccc1 [Droloxifene]
[1]
  IC50: 291 ± 115 nM
[1]; [5]
  Stimulation of alkaline phosphatase by tested compounds % of 1 nM E2 stimulation: 23.8 ± 3.1 (7) % of 1 nM E2 stimulation

## C#C[C@]1(O)CC[C@H]2[C@@H]3CCc4cc(O)ccc4[C@H]3CC[C@@]21C [EE2, 17-ethynylestradiol]
[2]
  increment of body fat and retroperitoneal adipose tissue by ovariectomy: prevented
[2]; DEXA, EE2 0.1, Raloxifene 1, EM-652.HCl 1 mg/kg oral, DHEA 80 mg/kg topical
  Fat %: 19.8 ± 1.9%
[2]; [6]
  Left retroperitoneal adipose tissue: 1.15 ± 0.18 g
  Right retroperitoneal adipose tissue: 1.29 ± 0.22 g

## CC/C(=C(\c1ccccc1)c1ccc(/C=C/C(=O)O)cc1)c1ccccc1 [GW-5638]
[1]; Ishikawa cells, five days incubation, 1 nM E2, antiestrogenic activity
  Inhibition of 1 nM E2 stimulation of alkaline phosphatase by tested compounds IC50: No inhibition
[1]; [5]
  Stimulation of alkaline phosphatase by tested compounds % of 1 nM E2 stimulation: 7.75 ± 5.5 (2) % of 1 nM E2 stimulation

## CC/C(=C(\c1ccc(I)cc1)c1ccc(OCCN2CCCC2)cc1)c1ccccc1 [Idoxifene]
[1]
  IC50: > 1000 nM
[1]; [5]
  Stimulation of alkaline phosphatase by tested compounds % of 1 nM E2 stimulation: 25.1 ± 1.5 (5) % of 1 nM E2 stimulation

## COc1ccc(-c2sc3cc(O)ccc3c2Oc2ccc(OCCN3CCCCC3)cc2)cc1.Cl [LY 353381]
[3]
  Serum insulin (in words): decreased
  Brown adipose tissue Lipoprotein lipase activity: 888 ± 65 μU/g protein
  Brown adipose tissue weight: 0.368 ± 0.031 g
  Cumulative food intake: 312 ± 7 g
  Serum glucose: 17.1 ± 0.7 mmol/L
  Serum insulin: 0.104 ± 0.11 nmol/L
  Serum leptin: 1.22 ± 0.21 ng/mL
  Serum total cholesterol: 1.15 ± 0.08 mmol/L
  Serum triglycerides: 1.23 ± 0.28 mmol/L
  Soleus muscle Lipoprotein lipase activity: 10.1 ± 1.0 μU/g protein
  Soleus muscle weight: 0.092 ± 0.002 g
  Total weight: 231 ± 4 g
  VastusLateralis muscle weight: 0.955 ± 0.20 g
  White adipose tissue inguinal Lipoprotein lipase activity: 559 ± 165 μU/g protein
  White adipose tissue inguinal weight: 0.290 ± 0.038 g
  White adipose tissue retroperitoneal Lipoprotein lipase activity: 1365 ± 119 μU/g protein
  White adipose tissue retroperitoneal weight: 0.968 ± 0.120 g

## Oc1ccc2c(c1)CC[C@H](c1ccccc1)[C@@H]2c1ccc(OCCN2CCCC2)cc1 [Lasofoxifene, cis-1R-[4′-pyrrolidino-ethoxyphenyl]-2S-phenyl-6-hydroxy-1,2,3,4,-tetrahydronapthalene D-(−)-tartrate salt]
[4]; 0.5 mg
  OVX-induced increase in total serum cholesterol levels: completely prevented
  increase of uterine weight compared to OVX control: 62%
[4]; OVX rats, 0.5 mg
  prevention of body weight increase induced by ovariectomy: 127%
[4]; [7]
  Cholesterol: 0.95 ± 0.09 mmol/L
  Final Body Weight: 210 ± 3 g
  Uterine Weight: 247.4 ± 9.1 mg
[3]
  Serum insulin (in words): decreased
  Brown adipose tissue Lipoprotein lipase activity: 982 ± 98 μU/g protein
  Brown adipose tissue weight: 0.244 ± 0.022 g
  Cumulative food intake: 283 ± 14 g
  Serum glucose: 15.8 ± 1.3 mmol/L
  Serum insulin: 0.095 ± 0.017 nmol/L
  Serum leptin: 0.97 ± 0.29 ng/mL
  Serum total cholesterol: 1.29 ± 0.06 mmol/L
  Serum triglycerides: 0.81 ± 0.21 mmol/L
  Soleus muscle Lipoprotein lipase activity: 10.9 ± 1.5 μU/g protein
  Soleus muscle weight: 0.096 ± 0.003 g
  Total weight: 210 ± 2 g
  VastusLateralis muscle weight: 0.800 ± 0.048 g
  White adipose tissue inguinal Lipoprotein lipase activity: 801 ± 138 μU/g protein
  White adipose tissue inguinal weight: 0.187 ± 0.023 g
  White adipose tissue retroperitoneal Lipoprotein lipase activity: 1417 ± 163 μU/g protein
  White adipose tissue retroperitoneal weight: 0.867 ± 0.132 g
[1]; [5]
  Stimulation of alkaline phosphatase by tested compounds % of 1 nM E2 stimulation: 18 % of 1 nM E2 stimulation

## CC/C(=C(\c1ccc(O)cc1)c1ccc(OCCN(C)C)cc1)c1ccccc1 [OH-Tamoxifen]
[1]
  IC50: 31.9 ± 6 nM
[1]; [5]
  Stimulation of alkaline phosphatase by tested compounds % of 1 nM E2 stimulation: 32.4 ± 2.2 (8) % of 1 nM E2 stimulation

## CN(C)CCOc1ccc(/C(=C(/CCCl)c2ccccc2)c2ccc(O)cc2)cc1 [OH-Toremifene]
[1]; [5]
  Stimulation of alkaline phosphatase by tested compounds % of 1 nM E2 stimulation: 29.6 ± 2.1 (6) % of 1 nM E2 stimulation
